Test results taken from ChEMBL document CHEMBL4706518, “Discovery of MGS0274, an ester prodrug of a metabotropic glutamate receptor 2/3 agonist with improved oral bioavailability” (Eur J Med Chem, 2020).
Calls of active or inactive are those of the source. No cut-off for these calls is given here.

How the values were obtained:
Homo sapiens [1] = species on record: Homo sapiens; test: Binding affinity to glycine receptor strychnine-sensitive binding site (unknown origin) 10 umol/L by radioligand binding assay; settings: dose 10.0 µmol/L
[2] = biological target: Cannabinoid receptor 1 (Homo sapiens) (UniProt P21554); test: Binding affinity to CB1 (unknown origin) 10 umol/L by radioligand binding assay; settings: dose 10.0 µmol/L
[3] = biological target: Alpha-2A adrenergic receptor (Homo sapiens) (UniProt P08913); test: Binding affinity to alpha2A adrenoreceptor (unknown origin) 10 umol/L by radioligand binding assay; settings: dose 10.0 µmol/L
[4] = biological target: Vasopressin V1b receptor (Homo sapiens) (UniProt P47901); test: Binding affinity to Vasopressin V1b receptor (unknown origin) 10 umol/L by radioligand binding assay; settings: dose 10.0 µmol/L
Homo sapiens [5] = species on record: Homo sapiens; test: Binding affinity to NMDA receptor agonist site (unknown origin) 10 umol/L by radioligand binding assay; settings: dose 10.0 µmol/L
[6] = biological target: Delta-type opioid receptor (Homo sapiens) (UniProt P41143); test: Binding affinity to delta opioid receptor (unknown origin) 10 umol/L by radioligand binding assay; settings: dose 10.0 µmol/L
[7] = biological target: Glucocorticoid receptor (Homo sapiens) (UniProt P04150); test: Binding affinity to glucocorticoid receptor (unknown origin) 10 umol/L by radioligand binding assay; settings: dose 10.0 µmol/L
Homo sapiens [8] = species on record: Homo sapiens; test: Binding affinity to GABAA receptor agonist site (unknown origin) 10 umol/L by radioligand binding assay; settings: dose 10.0 µmol/L
[9] = biological target: Substance-P receptor (Homo sapiens) (UniProt P25103); test: Binding affinity to NK1 receptor (unknown origin) 10 umol/L by radioligand binding assay; settings: dose 10.0 µmol/L
[10] = biological target: B2 bradykinin receptor (Homo sapiens) (UniProt P30411); test: Binding affinity to B2 receptor (unknown origin) 10 umol/L by radioligand binding assay; settings: dose 10.0 µmol/L
Homo sapiens [11] = species on record: Homo sapiens; test: Binding affinity to adenosine transporter (unknown origin) at 10 umol/L by radioligand binding assay; settings: dose 10.0 µmol/L
Homo sapiens [12] = species on record: Homo sapiens; test: Binding affinity to D4.2 receptor (unknown origin) 10 umol/L by radioligand binding assay; settings: dose 10.0 µmol/L
[13] = biological target: Adenosine receptor A2a (Homo sapiens) (UniProt P29274); test: Binding affinity to A2a receptor (unknown origin) at 10 umol/L by radioligand binding assay; settings: dose 10.0 µmol/L
Homo sapiens [14] = species on record: Homo sapiens; test: Binding affinity to GABA transporter (unknown origin) 10 umol/L by radioligand binding assay; settings: dose 10.0 µmol/L
Homo sapiens [15] = species on record: Homo sapiens; test: Binding affinity to Kainate receptor (unknown origin) 10 umol/L by radioligand binding assay; settings: dose 10.0 µmol/L
Homo sapiens [16] = species on record: Homo sapiens; test: Binding affinity to AMPA receptor (unknown origin) 10 umol/L by radioligand binding assay; settings: dose 10.0 µmol/L
[17] = biological target: Voltage-gated L-type calcium channel (Homo sapiens, UniProt Q13936+Q13698+Q01668+O60840); test: Binding affinity to Voltage-dependent L-type calcium channel benzothiazepine site (unknown origin) 10 umol/L by radioligand binding assay; assay type: protein assay; settings: 10 µM, dose 10 µmol/L
Homo sapiens [18] = species on record: Homo sapiens; test: Binding affinity to Monoamine transporter (unknown origin) 10 umol/L by radioligand binding assay; settings: dose 10.0 µmol/L
[19] = biological target: Sodium-dependent noradrenaline transporter (Homo sapiens) (UniProt P23975); test: Binding affinity to norepinephrine transporter (unknown origin) 10 umol/L by radioligand binding assay; settings: dose 10.0 µmol/L
Homo sapiens [20] = species on record: Homo sapiens; test: Binding affinity to Potassium voltage-gated channel (unknown origin) 10 umol/L by radioligand binding assay; settings: dose 10.0 µmol/L
[21] = biological target: Histamine H1 receptor (Homo sapiens) (UniProt P35367); test: Binding affinity to H1 receptor (unknown origin) 10 umol/L by radioligand binding assay; settings: dose 10.0 µmol/L
[22] = biological target: Adenosine receptor A1 (Homo sapiens) (UniProt P30542); test: Binding affinity to A1 receptor (unknown origin) at 10 umol/L by radioligand binding assay; settings: dose 10.0 µmol/L
Homo sapiens [23] = species on record: Homo sapiens; test: Binding affinity to Voltage-dependent N-type calcium channel (unknown origin) 10 umol/L by radioligand binding assay; settings: dose 10.0 µmol/L
Homo sapiens [24] = species on record: Homo sapiens; test: Binding affinity to estrogen receptor (unknown origin) 10 umol/L by radioligand binding assay; settings: dose 10.0 µmol/L
[25] = biological target: Cysteinyl leukotriene receptor 1 (Homo sapiens) (UniProt Q9Y271); test: Binding affinity to Leukotriene D4 receptor (unknown origin) 10 umol/L by radioligand binding assay; settings: dose 10.0 µmol/L
Homo sapiens [26] = species on record: Homo sapiens; test: Binding affinity to bombesin receptor (unknown origin) 10 umol/L by radioligand binding assay; settings: dose 10.0 µmol/L
Homo sapiens [27] = species on record: Homo sapiens; test: Binding affinity to Imidazole receptor (unknown origin) 10 umol/L by radioligand binding assay; settings: dose 10.0 µmol/L
[28] = biological target: Neuromedin-K receptor (Homo sapiens) (UniProt P29371); test: Binding affinity to NK3 receptor (unknown origin) 10 umol/L by radioligand binding assay; settings: dose 10.0 µmol/L
[29] = biological target: Muscarinic acetylcholine receptor M4 (Homo sapiens) (UniProt P08173); test: Binding affinity to muscarinic M4 (unknown origin) 10 umol/L by radioligand binding assay; settings: dose 10.0 µmol/L
[30] = biological target: Neuropeptide Y receptor type 1 (Homo sapiens) (UniProt P25929); test: Binding affinity to Y1 receptor (unknown origin) 10 umol/L by radioligand binding assay; settings: dose 10.0 µmol/L
[31] = biological target: Type-2 angiotensin II receptor (Homo sapiens) (UniProt P50052); test: Binding affinity to AT2 receptor (unknown origin) 10 umol/L by radioligand binding assay; settings: dose 10.0 µmol/L
[32] = biological target: Vasopressin V2 receptor (Homo sapiens) (UniProt P30518); test: Binding affinity to Vasopressin V2 receptor (unknown origin) 10 umol/L by radioligand binding assay; settings: dose 10.0 µmol/L
[33] = biological target: 5-hydroxytryptamine receptor 1A (Homo sapiens) (UniProt P08908); test: Binding affinity to 5-HT1A receptor (unknown origin) 10 umol/L by radioligand binding assay; settings: dose 10.0 µmol/L
Homo sapiens [34] = species on record: Homo sapiens; test: Binding affinity to NMDA receptor glycine site (unknown origin) 10 umol/L by radioligand binding assay; settings: dose 10.0 µmol/L
[35] = biological target: Adenosine receptor A3 (Homo sapiens) (UniProt P0DMS8); test: Binding affinity to A3 receptor (unknown origin) 10 umol/L by radioligand binding assay; settings: dose 10.0 µmol/L
[36] = biological target: 5-hydroxytryptamine receptor 2A (Homo sapiens) (UniProt P28223); test: Binding affinity to 5-HT2A receptor (unknown origin) 10 umol/L by radioligand binding assay; settings: dose 10.0 µmol/L
[37] = biological target: Prostaglandin E2 receptor EP2 subtype (Homo sapiens) (UniProt P43116); test: Binding affinity to Prostanoid EP2 receptor (unknown origin) 10 umol/L by radioligand binding assay; settings: dose 10.0 µmol/L
[38] = biological target: D(1A) dopamine receptor (Homo sapiens) (UniProt P21728); test: Binding affinity to D1 receptor (unknown origin) 10 umol/L by radioligand binding assay; settings: dose 10.0 µmol/L
[39] = biological target: Melatonin receptor type 1A (Homo sapiens) (UniProt P48039); test: Binding affinity to MT1 receptor (unknown origin) 10 umol/L by radioligand binding assay; settings: dose 10.0 µmol/L
[40] = biological target: Alpha-2C adrenergic receptor (Homo sapiens) (UniProt P18825); test: Binding affinity to alpha2C adrenoreceptor (unknown origin) 10 umol/L by radioligand binding assay; settings: dose 10.0 µmol/L
[41] = biological target: Sodium-dependent serotonin transporter (Homo sapiens) (UniProt P31645); test: Inhibition of serotonin transporter (unknown origin) 10 umol/L by radioligand binding assay relative to control; settings: dose 10.0 µmol/L
[42] = biological target: Alpha-1A adrenergic receptor (Homo sapiens) (UniProt P35348); test: Binding affinity to alpha1A adrenoreceptor (unknown origin) 10 umol/L by radioligand binding assay; settings: dose 10.0 µmol/L
[43] = biological target: B1 bradykinin receptor (Homo sapiens) (UniProt P46663); test: Binding affinity to B1 receptor (unknown origin) 10 umol/L by radioligand binding assay; settings: dose 10.0 µmol/L
[44] = biological target: Androgen receptor (Homo sapiens) (UniProt P10275); test: Binding affinity to androgen receptor (unknown origin) 10 umol/L by radioligand binding assay; settings: dose 10.0 µmol/L

Sequence of Neuromedin-K receptor (Homo sapiens) (P29371 whole entry): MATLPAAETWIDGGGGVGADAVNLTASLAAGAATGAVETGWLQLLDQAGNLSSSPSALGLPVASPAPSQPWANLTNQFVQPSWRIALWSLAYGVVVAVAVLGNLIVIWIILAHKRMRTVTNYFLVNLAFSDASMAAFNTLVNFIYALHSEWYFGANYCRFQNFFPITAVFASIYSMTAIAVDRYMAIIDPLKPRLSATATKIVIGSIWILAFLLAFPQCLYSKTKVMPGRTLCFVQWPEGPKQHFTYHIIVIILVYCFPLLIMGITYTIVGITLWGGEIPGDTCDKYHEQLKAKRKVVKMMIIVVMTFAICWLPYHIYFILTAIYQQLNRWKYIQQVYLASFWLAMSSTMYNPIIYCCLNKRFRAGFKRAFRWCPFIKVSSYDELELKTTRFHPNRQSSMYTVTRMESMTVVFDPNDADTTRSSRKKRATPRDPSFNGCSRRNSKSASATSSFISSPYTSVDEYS
Sequence of B2 bradykinin receptor (Homo sapiens) (P30411 whole entry): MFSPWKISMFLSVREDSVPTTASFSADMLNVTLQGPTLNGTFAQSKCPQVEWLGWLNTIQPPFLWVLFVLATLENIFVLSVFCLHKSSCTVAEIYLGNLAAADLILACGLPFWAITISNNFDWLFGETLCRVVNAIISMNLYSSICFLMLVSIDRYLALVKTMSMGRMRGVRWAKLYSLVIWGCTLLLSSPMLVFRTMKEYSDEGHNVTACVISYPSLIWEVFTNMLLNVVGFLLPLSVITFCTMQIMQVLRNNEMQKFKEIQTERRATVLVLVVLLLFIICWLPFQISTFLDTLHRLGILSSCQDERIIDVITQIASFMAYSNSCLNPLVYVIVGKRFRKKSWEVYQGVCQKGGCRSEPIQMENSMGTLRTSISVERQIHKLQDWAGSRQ
Sequence of Alpha-2A adrenergic receptor (Homo sapiens) (P08913 whole entry): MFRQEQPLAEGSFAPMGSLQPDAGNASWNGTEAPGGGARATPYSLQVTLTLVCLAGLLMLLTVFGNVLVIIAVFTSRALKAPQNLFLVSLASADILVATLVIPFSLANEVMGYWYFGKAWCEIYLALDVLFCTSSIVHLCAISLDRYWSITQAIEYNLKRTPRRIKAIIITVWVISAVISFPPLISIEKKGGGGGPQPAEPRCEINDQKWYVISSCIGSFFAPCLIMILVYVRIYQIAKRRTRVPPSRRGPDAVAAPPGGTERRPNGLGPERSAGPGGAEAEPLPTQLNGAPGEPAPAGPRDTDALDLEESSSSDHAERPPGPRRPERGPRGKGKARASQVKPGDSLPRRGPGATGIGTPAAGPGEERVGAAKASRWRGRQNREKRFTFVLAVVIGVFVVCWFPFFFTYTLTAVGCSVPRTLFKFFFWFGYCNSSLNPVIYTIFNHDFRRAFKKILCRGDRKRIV
Sequence of D(1A) dopamine receptor (Homo sapiens) (P21728 whole entry): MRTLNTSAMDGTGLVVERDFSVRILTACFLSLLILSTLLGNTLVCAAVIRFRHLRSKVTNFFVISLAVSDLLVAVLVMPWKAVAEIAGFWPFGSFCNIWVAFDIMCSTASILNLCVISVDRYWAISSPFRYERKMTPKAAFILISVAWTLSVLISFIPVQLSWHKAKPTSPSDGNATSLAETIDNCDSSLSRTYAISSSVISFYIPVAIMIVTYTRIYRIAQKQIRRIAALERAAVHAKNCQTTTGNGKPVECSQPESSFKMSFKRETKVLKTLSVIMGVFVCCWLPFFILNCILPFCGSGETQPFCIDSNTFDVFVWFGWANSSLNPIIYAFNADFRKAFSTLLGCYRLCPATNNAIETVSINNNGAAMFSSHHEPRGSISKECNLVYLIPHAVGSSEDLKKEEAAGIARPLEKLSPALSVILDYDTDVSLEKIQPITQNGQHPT
Sequence of Alpha-1A adrenergic receptor (Homo sapiens) (P35348 whole entry): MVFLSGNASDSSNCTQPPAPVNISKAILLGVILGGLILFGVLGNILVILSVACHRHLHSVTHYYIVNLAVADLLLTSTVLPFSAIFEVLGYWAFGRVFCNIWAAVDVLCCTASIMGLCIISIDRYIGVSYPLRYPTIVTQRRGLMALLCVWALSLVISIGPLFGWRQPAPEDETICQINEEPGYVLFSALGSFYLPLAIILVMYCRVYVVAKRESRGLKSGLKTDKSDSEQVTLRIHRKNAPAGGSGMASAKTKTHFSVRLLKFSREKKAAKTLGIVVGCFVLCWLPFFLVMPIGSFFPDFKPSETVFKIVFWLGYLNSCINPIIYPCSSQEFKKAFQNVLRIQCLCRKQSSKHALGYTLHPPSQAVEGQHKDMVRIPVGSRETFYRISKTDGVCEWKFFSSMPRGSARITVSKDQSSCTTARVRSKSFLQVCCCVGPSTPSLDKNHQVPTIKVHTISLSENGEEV
Sequence of B1 bradykinin receptor (Homo sapiens) (P46663 whole entry): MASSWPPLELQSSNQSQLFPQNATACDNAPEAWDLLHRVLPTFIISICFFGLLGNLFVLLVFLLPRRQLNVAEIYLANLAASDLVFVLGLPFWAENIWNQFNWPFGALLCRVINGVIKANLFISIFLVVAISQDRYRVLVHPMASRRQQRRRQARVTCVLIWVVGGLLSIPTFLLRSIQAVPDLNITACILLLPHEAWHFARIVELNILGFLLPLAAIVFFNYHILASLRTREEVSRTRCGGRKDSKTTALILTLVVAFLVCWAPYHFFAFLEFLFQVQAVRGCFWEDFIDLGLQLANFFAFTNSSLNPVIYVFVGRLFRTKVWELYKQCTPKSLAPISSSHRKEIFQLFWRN
Sequence of Prostaglandin E2 receptor EP2 subtype (Homo sapiens) (P43116 whole entry): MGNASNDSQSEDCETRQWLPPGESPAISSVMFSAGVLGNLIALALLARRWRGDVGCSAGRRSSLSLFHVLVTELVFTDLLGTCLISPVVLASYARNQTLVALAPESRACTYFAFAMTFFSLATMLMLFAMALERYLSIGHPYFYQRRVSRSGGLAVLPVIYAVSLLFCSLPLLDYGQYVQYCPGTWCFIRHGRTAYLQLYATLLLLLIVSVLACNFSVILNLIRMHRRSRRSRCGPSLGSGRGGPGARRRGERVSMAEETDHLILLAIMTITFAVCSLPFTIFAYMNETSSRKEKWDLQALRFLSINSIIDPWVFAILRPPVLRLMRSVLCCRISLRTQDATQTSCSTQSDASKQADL
Sequence of Alpha-2C adrenergic receptor (Homo sapiens) (P18825 whole entry): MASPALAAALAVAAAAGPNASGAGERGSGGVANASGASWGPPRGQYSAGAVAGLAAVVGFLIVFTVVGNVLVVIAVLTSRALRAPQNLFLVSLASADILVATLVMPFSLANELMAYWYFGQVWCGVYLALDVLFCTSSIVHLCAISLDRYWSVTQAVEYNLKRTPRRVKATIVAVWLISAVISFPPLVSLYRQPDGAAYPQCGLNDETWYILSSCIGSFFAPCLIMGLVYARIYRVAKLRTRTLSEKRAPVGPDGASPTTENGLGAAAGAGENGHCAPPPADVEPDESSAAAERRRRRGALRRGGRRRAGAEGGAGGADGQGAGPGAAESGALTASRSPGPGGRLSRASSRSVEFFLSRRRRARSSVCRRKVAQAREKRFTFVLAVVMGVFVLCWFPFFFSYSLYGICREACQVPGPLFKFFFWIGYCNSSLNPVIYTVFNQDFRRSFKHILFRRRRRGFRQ
Sequence of Melatonin receptor type 1A (Homo sapiens) (P48039 whole entry): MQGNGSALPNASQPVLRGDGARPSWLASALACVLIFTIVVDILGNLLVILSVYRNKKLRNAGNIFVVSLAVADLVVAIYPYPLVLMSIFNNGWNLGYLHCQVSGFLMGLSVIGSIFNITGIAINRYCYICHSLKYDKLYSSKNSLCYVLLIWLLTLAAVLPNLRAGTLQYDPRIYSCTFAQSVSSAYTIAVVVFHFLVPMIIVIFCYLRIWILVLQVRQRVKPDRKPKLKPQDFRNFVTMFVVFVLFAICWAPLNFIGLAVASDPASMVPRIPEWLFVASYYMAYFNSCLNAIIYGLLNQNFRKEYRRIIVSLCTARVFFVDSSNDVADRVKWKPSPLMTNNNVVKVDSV
Sequence of Adenosine receptor A2a (Homo sapiens) (P29274 whole entry): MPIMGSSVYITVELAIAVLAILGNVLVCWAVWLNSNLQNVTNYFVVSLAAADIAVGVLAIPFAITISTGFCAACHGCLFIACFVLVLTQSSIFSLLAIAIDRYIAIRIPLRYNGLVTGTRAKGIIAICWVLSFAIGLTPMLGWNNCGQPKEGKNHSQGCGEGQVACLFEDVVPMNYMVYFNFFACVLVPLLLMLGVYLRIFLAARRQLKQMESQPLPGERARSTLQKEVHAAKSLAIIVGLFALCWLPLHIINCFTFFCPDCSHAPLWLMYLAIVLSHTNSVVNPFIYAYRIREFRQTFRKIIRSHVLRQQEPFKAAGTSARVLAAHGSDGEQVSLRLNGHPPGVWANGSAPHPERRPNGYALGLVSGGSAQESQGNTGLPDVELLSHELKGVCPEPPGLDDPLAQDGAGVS
Sequence of Type-2 angiotensin II receptor (Homo sapiens) (P50052 whole entry): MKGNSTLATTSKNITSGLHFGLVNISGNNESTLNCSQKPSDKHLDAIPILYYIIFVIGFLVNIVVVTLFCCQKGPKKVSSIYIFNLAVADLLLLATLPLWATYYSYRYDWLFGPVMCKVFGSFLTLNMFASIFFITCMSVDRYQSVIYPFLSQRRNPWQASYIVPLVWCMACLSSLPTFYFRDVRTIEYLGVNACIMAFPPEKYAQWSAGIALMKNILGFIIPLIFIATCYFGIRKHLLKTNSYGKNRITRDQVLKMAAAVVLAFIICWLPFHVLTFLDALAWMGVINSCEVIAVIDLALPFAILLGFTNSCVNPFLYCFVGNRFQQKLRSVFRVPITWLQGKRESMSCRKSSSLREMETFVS
Sequence of Adenosine receptor A3 (Homo sapiens) (P0DMS8 whole entry): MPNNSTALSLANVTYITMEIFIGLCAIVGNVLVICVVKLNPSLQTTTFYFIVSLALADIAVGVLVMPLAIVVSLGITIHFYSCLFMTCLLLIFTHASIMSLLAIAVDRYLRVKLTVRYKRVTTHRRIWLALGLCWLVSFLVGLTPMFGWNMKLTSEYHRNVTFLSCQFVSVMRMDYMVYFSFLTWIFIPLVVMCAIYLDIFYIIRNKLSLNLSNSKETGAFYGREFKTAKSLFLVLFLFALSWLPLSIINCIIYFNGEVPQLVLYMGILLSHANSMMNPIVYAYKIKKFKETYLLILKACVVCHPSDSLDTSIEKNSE

CC(C)[C@@H]1CC[C@@H](C)C[C@H]1OC(=O)O[C@@H](C)OC(=O)[C@H]1[C@@H]2C[C@H](F)[C@@](N)(C(=O)O)[C@@H]21
Activity (Homo sapiens [1]): inactive | Activity [2]: inactive | Activity [3]: inactive | Activity [4]: inactive | Activity (Homo sapiens [5]): inactive | Activity [6]: inactive | Activity [7]: inactive | Activity (Homo sapiens [8]): inactive | Activity [9]: inactive | Activity [10]: inactive | Activity (Homo sapiens [11]): inactive | Activity (Homo sapiens [12]): inactive | Activity [13]: inactive | Activity (Homo sapiens [14]): inactive | Activity (Homo sapiens [15]): inactive | Activity (Homo sapiens [16]): inactive | Activity [17]: Not Active | Activity (Homo sapiens [18]): inactive | Activity [19]: inactive | Activity (Homo sapiens [20]): inactive | Activity [21]: inactive | Activity [22]: inactive | Activity (Homo sapiens [23]): inactive | Activity (Homo sapiens [24]): inactive | Activity [25]: inactive | Activity (Homo sapiens [26]): inactive | Activity (Homo sapiens [27]): inactive | Activity [28]: inactive | Activity [29]: inactive | Activity [30]: inactive | Activity [31]: inactive | Activity [32]: inactive | Activity [33]: inactive | Activity (Homo sapiens [34]): inactive | Activity [35]: inactive | Activity [36]: inactive | Activity [37]: inactive | Activity [38]: inactive | Activity [39]: inactive | Activity [40]: inactive | inhibition [41]: 76% | Activity [42]: inactive | Activity [43]: inactive | Activity [44]: inactive

N[C@]1(C(=O)O)[C@H]2[C@@H](C[C@@H]1F)[C@@H]2C(=O)O
Activity (Homo sapiens [1]): inactive | Activity [2]: inactive | Activity [3]: inactive | Activity [4]: inactive | Activity (Homo sapiens [5]): inactive | Activity [6]: inactive | Activity [7]: inactive | Activity (Homo sapiens [8]): inactive | Activity [9]: inactive | Activity [10]: inactive | Activity (Homo sapiens [11]): inactive | Activity (Homo sapiens [12]): inactive | Activity [13]: inactive | Activity (Homo sapiens [14]): inactive | Activity (Homo sapiens [15]): inactive | Activity (Homo sapiens [16]): inactive | Activity [17]: Not Active | Activity (Homo sapiens [18]): inactive | Activity [19]: inactive | Activity (Homo sapiens [20]): inactive | Activity [21]: inactive | Activity [22]: inactive | Activity (Homo sapiens [23]): inactive | Activity (Homo sapiens [24]): inactive | Activity [25]: inactive | Activity (Homo sapiens [26]): inactive | Activity (Homo sapiens [27]): inactive | Activity [28]: inactive | Activity [29]: inactive | Activity [30]: inactive | Activity [31]: inactive | Activity [32]: inactive | Activity [33]: inactive | Activity (Homo sapiens [34]): inactive | Activity [35]: inactive | Activity [36]: inactive | Activity [37]: inactive | Activity [38]: inactive | Activity [39]: inactive | Activity [40]: inactive | inhibition [41]: inactive | Activity [42]: inactive | Activity [43]: inactive | Activity [44]: inactive
